Laboratory results: patent US6692928B1, “Methods for identifying cardiovascular agents” (New England Medical Center Hospitals, Inc., priority 1996, dated 2004)
Like-named read-outs stand apart in the source and are kept apart here. One block for each molecule: values may come before it.

How the values were obtained:
[1] = system: eNOS; test: eNOS activity in ovine pulmonary aortic endothelial cells (PAEC); format: cell-based; conditions: for basal eNOS activity: no E2
Description: (§1) Several molecular and pharmacologic interventions can disrupt this rapid ERα-eNOS signaling pathway.

[2] = system: eNOS protein; test: eNOS protein level by immunoblotting; format: cell-based, rat; conditions: n=3
Description: (§2) ER-regulation of two cardiac target genes, iNOS and eNOS, were studied in transient transfection experiments using either an iNOS-luciferase reporter plasmid (containing 1.1 Kb of the 5′-flanking region of the human iNOS gene driving expression of the luciferase cDNA) or an eNOS luciferase reporter plasmid (containing 1.6 Kb of the 5′ flanking region of the human eNOS gene driving expression of the luciferase cDNA). […] In these experiments, E2 increased the abundance of iNOS protein (50+/−23-fold; n=3; p<0.05) as well as eNOS protein (15.7+/−4.3 fold; n=3; p<0.05).

[3] = system: endothelium-denuded aortic rings; test: Mouse aortic vascular ring bioassay, phenylephrine-induced constriction; conditions: male mice
Description: An eight-chamber vascular ring bioassay system may be used to study vasomotion in vascular rings from mice. Vascular contraction and relaxation may be examined in endothelial-intact and endothelial-denuded mouse aortic vascular rings. […] The mouse aortic ring experiments may be carried out in rings from wild type, ERαKO and ERβKO animals.

[4] = system: MAP kinase; test: MAP kinase activity in PAEC; format: cell-based, ovine; conditions: 5 minute exposure, 10^−8M E2
Description: as §1

[5] = system: human eNOS gene; test: eNOS luciferase reporter in rat cardiomyocytes; format: cell-based; conditions: 1 nM E2, 48 hours
Description: as §2

[6] = system: human iNOS gene; test: iNOS-luciferase reporter in rat cardiomyocytes; format: cell-based; conditions: 1 nM E2, 48 hours
Description: as §2

[7] = system: vascular injury response; conditions: 14 days after carotid injury, physiologic levels
Description: Vascular medial are increases and smooth muscle cell proliferation were quantitated 14 days following cartoid injury in ovariectomized female mice treated with vehicle or physiologic levels of 17-β estradiol.

[8] = system: eNOS; test: eNOS activity in transfected COS 7 cells; format: cell-based
Description: In contrast, ERα and eNOS coexpression had no effect on basal (unstimulated) eNOS activity (102+/−33% of activity in sham-transfected cells (ERα(−)).

[9] = system: iNOS protein; test: iNOS protein level by immunoblotting; format: cell-based, rat; conditions: n=3
Description: as §2

[10] = system: vascular injury; test: Mouse carotid injury model, L-NAME and eNOS knockout studies; format: in vivo, mice
Description: Two endpoints were routinely analyzed. First, computerized morphometrics were collected to examine the extent of vascular injury by quantitating medial area measurements. Second, BrdU labeling of VSMC and endothelial cells that proliferated following the injury was quantitated, which required extensive immunohistochemical staining for (i) BrdU, (ii) smooth muscle α-actin, and (iii) Factor VIII-related antigen (endothelial cells).
The studies may also be carried out in wild type mice and mice lacking ERα, ERβ, eNOS, iNOS, or nNOS, or in mice lacking a combination of these proteins. The level of NOS isoforms may be examined using isoform-specific antibodies.

[11] = target: T1, estrogen receptor (Homo sapiens, UniProt P03372); test: ERE-Luc reporter activation of the estrogen receptor in transfected cells; format: cell-based
T1 construct: expressed in transfected cells; host or cells: PVEC, HSVSMC, human aortic VSMC, HeLa (transient transfection)
T1 sequence (P03372 1-595): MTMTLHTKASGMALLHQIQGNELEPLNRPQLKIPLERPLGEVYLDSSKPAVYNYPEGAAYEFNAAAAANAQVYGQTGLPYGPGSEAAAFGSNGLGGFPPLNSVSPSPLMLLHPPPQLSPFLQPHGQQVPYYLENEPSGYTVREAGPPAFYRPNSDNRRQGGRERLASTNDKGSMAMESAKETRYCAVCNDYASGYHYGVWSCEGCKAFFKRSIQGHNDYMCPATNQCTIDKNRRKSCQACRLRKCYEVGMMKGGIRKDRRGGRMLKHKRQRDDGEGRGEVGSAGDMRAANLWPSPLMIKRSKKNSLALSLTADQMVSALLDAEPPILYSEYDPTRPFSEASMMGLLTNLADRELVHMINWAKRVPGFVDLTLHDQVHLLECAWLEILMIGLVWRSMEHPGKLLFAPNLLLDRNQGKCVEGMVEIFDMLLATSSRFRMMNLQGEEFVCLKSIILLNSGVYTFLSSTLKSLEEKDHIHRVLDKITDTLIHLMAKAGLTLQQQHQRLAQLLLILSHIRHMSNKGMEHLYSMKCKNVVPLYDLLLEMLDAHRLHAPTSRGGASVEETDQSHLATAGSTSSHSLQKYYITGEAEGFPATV
Procedure: The cells were then cultured for 48 hours in serum-free medium in the absence or presence of EGF (100 ng/ml).

[12] = system: VEGF expression; test: VEGF expression in rat VSMC (A7r5 cells); format: cell-based
[13] = system: VEGF gene; test: VEGF-luciferase reporter, transiently transfected HeLa cells; format: cell-based
Description: (§3) To study the role of estrogen on expression of the VEGF gene in vascular smooth muscle cells, human saphenous vein smooth muscle cells (HSVSMC) and HeLa cells were transiently transfected with a VEGF-luciferase reporter construct. In this reporter construct, expression of luciferase is under the control of a 1.2 kB fragment of the murine VEGF gene regulatory region. The cells were also transfected with an estrogen receptor α expression construct. All of the results described below have been normalized for transfection efficiency.

[14] = system: VEGF expression; test: pmVEGF-Luc reporter in WB572 cells; format: cell-based, human; conditions: estrogen 10^−6M, 48 hours
Description: (§4) One useful reporter construct is pmVEGF-Luc. In this reporter construct, a 1.6 kB fragment of genomic DNA located upstream of the murine vascular endothelial cell growth factor (VEGF) gene has been inserted into the pGL2-Basic luciferase reporter plasmid (Promega; Madison, Wis.). The 1.6 kB fragment includes the transcription start site, 1.2 kB of sequence upstream of the start site, and 0.4 kB of sequence downstream of the start site. Useful variants of this reporter plasmid can be made by deleting a portion of the murine VEGF control region. For example, pVEGF-Luc-Apa/Kpn is identical to pVEGF-luc except that 455 bp at the 5′ end of the 1.6 kB fragment have been removed; pVEGF-Luc-Mlu is identical to pVEGF-luc except that 768 bp at the 5′ end of the 1.6 kB fragment have been removed; and pVEGF-Luc-Sma is identical to pVEGF-luc except that 455 bp at the 5′ end of the 1.6 kB fragment have been removed. Similar reporter constructs can be created using upstream regulatory sequences from the human VEGF gene. For example, phVEGF-Luc is a reporter construct in which 5.1 kb genomic DNA upstream of the human VEGF coding sequence inserted into the pGL2-Basic luciferase reporter plasmid. This particular construct includes 3.4 kb of sequence upstream of the VEGF transcription start site and 1.7 kb untranslated sequence downstream of the transcription start site.

[15] = estrogen replacement therapy, by as much as; cited from earlier work
[16] = system: PAEC; test: Protein tyrosine phosphorylation in PAEC; format: cell-based
Procedure: An immortalized PAEC line retains the ER-eNOS activation pathway completely and provides a useful reagent for identifying other members of the pathway. Experiments indicate that a number of proteins are rapidly tyrosine phosphorylated following exposure of PAEC to estrogen. This occurs within 5-10 minutes and includes a series of low molecular weight proteins (15-40 Kd), as well as several larger proteins.

[17] = system: VEGF gene; test: VEGF-luciferase reporter, transiently transfected HSVSMC; format: cell-based, human; conditions: VEGF-luciferase + estrogen receptor α construct, 1 μM estrogen, n=12
Description: as §3

[18] = system: VEGF expression; test: pmVEGF-Luc reporter in GH3B6 cells; format: cell-based, rat; conditions: estrogen 10^−6M, 48 hours
Description: as §4

[19] = system: pERE-Luc reporter; test: pERE-Luc reporter in GH3B6 cells; format: cell-based, rat; conditions: same conditions (estrogen 10^−6M, 48 hours)

Molecule: C[C@]12CC[C@@H]3c4ccc(O)cc4CC[C@H]3[C@@H]1CC[C@H]2O [17α-estradiol]
eNOS activity ([1]; PAEC, 10^−12 to 10^−6M): had no effect

Molecule: C[C@]12CC[C@@H]3c4ccc(O)cc4CC[C@H]3[C@@H]1CC[C@@H]2O [E2, 17β-estradiol]
increase in abundance of eNOS protein [2]: 15.7+/−4.3 fold | phenylephrine-induced constriction ([3]; chronic (18h) treatment): inhibited contraction | MAP kinase activity [4]: causes an increase in MAP kinase activity | increase of eNOS reporter activity ([5]; n=9): 6.9+/−0.06 fold | increase of iNOS reporter activity ([6]; n=9): 8.1+/−0.02 fold | vascular injury measures (medial area increase, smooth muscle cell proliferation) ([7]; estrogen receptor α knockout ovariectomized female mice): markedly inhibited all measures of vascular injury | vascular injury measures (medial area increase, smooth muscle cell proliferation) ([7]; wild-type ovariectomized female mice): markedly inhibited all measures of vascular injury | eNOS activity ([8]; COS 7 cells transfected with eNOS alone): had no effect | increase in eNOS activity ([8]; COS 7 cells transfected with eNOS and ERα, acute stimulation): > 3 fold | increase in abundance of iNOS protein [9]: 50+/−23 fold | eNOS activity ([1]; PAEC, E2 10^−8M): stimulates eNOS activity | time to maximal eNOS stimulation ([1]; PAEC, E2 10^−8M): ≤ 5 min

inhibition of E2-induced increase in MAP kinase activity [4]: completely inhibited | inhibition of E2 activation of eNOS reporter [5]: blocked fully | inhibition of E2 activation of iNOS reporter [6]: completely inhibited
Molecule: C[C@]12CC[C@@H]3c4ccc(O)cc4C[C@@H](CCCCCCCCC[S+]([O-])CCCC(F)(F)C(F)(F)F)[C@H]3[C@@H]1CC[C@@H]2O (stereo partly drawn) [ICI 182,780]
inhibition of acute eNOS response to E2 ([1]; PAEC): fully inhibited | inhibition of the enhanced eNOS response ([1]; PAEC overexpressing ER): inhibited completely | basal eNOS activity ([1]; PAEC): caused no change

Molecule: COC(=O)[C@@H](N)CCCNC(=N)N[N+](=O)[O-] [L-NAME]
effect on the 17β estradiol inhibition of contraction [3]: reversed the inhibition | effect on estrogen protection against vascular injury (medial area) ([10]; co-administration with estrogen, ovariectomized female mice): negated

Molecule: COc1cccc(-c2cc(=O)c3ccccc3o2)c1N [PD98059]
inhibition of acute eNOS response to E2 ([1]; PAEC): completely inhibit

Molecule: O=c1c(-c2ccc(O)cc2)coc2cc(O)cc(O)c12 [genistein]
inhibition of acute eNOS response to E2 ([1]; PAEC): completely inhibit | basal eNOS activity ([1]; PAEC): do not alter basal eNOS activity

inhibition of E2-induced increase in MAP kinase activity [4]: completely inhibited
Molecule: CC/C(=C(\c1ccccc1)c1ccc(OCCN(C)C)cc1)c1ccccc1 [tamoxifen]
inhibition of acute eNOS response to E2 ([1]; PAEC): fully inhibited | basal eNOS activity ([1]; PAEC): caused no change

effect on luciferase activity ([11]; HeLa cells, EGF 100 ng/ml, 48 hours, serum-free): no effect | increase in luciferase activity ([11]; PVEC, HSVSMC and human aortic VSMC, EGF 100 ng/ml, 48 hours, serum-free): ~3 fold
Molecule: EGF: epidermal growth factor

estrogen receptor activation ([11]; all cell types studied (PVEC, HSVSMC, human aortic VSMC, HeLa)): did not activate the estrogen receptor
Molecule: PDGF

Molecule: estrogen
activation of VEGF expression [12]: did not activate VEGF expression | increase of luciferase expression ([13]; HeLa cells co-transfected with estrogen receptor α expression plasmid, n=21): 4.2±0.8 fold | effect on luciferase expression ([13]; HeLa cells without estrogen receptor α, estrogen containing media): no effect | increase in luciferase activity [14]: 1.8 fold | reduction of the incidence of coronary artery disease [15]: 30-50% | time of protein tyrosine phosphorylation after exposure [16]: 5 to 10 min | increase of luciferase expression [17]: 1.7±0.2 fold | protection against injury (medial area endpoint) ([10]; eNOS KO mice, ovariectomized female): still able to protect against injury | effect on luciferase activity [18]: no effect | activation of pERE-Luc reporter [19]: 8 fold

Molecule: herbamycin A
inhibition of acute eNOS response to E2 ([1]; PAEC): completely inhibit | basal eNOS activity ([1]; PAEC): do not alter basal eNOS activity
